From US20200323833A1, “HYDROPHOBIC ACID ADDITION SALTS” (Theracaine LLC, priority 2017, published 2020)
Where a name gives a salt, the structure may show the parent alone.

How the values were obtained:
[1] = Pharmacokinetics of dry powder administered subcutaneously via dorsal incision (Example 5); format: in vivo, Sprague Dawley rats; conditions: dry powder 230, via dorsal incision, bupivacaine salt 149 vs lidocaine salt 226 mg/kg
Method: Terminal collections were performed via vena cava.
The test articles were drug compositions designated as Test Articles A and B, which were administered as a single subcutaneous dose via dorsal incision to female CD (Sprague Dawley) rats.
(§1) Ten (10) female, jugular vein catheterized (JVC) CD rats initially were assigned to two dose groups consisting of five animals per group.
(§2) Each test article was provided as a powder in an individual vial.

[2] = test system: female CD (Sprague Dawley) rats; conditions: rat, in vivo
Method: Clinical observations were performed daily.
as §1, §2

[3] = test system: female Sprague-Dawley rats; conditions: rat, in vivo, sc
Method: (§3) Clinical observations were performed daily. […] Other characteristics observed included appearance of skin and fur, appearance of eyes and mucous membranes, urine and fecal output, and changes in locomotor behavior. The times of observation were approximately the same each day, and the date of each observation was recorded.
The vehicle was a hyaluronic acid vehicle. The animals received a single subcutaneous dose of the test article or vehicle delivered to the dorsal area of the animals.
In addition, dose sites were exposed for gross evaluation of residual test articles and local response to the injected materials.

[4] = test system: female Sprague Dawley (CD) rats; conditions: rat, in vivo, sc
Method: as §3
Animals were euthanized at the end of the study via carbon dioxide inhalation (CO2) followed by thoracotomy. Gross necropsy of the dose sites were performed and they were collected for histopathology. Photographs were taken for any observation of tissue or reaction to treatment. Carcasses were discarded without further examination.
Twenty (20) female, jugular vein catheterized (JVC) Sprague Dawley (CD) rats initially were assigned to four dose groups consisting of eight (Test Articles A and B) or two (Test Articles B and C) animals per group. The animals received a single subcutaneous dose of the test article delivered to the dorsal subcutaneum of the animals via a dorsal skin incision.
Test articles were provided as a powder in individual vials (Test Articles A and B), or as a solution (Test Articles C and D). On the day of testing, each animal's dose was individually calculated, weighed or measured, and recorded. […]

Cmax compared to the lidocaine particles [1] | duration of release compared to the lidocaine particles ([1]; listed as bupivacaine particles) | duration of release compared to the lidocaine particles ([1]; listed as bupivaciane particles) | SMILES | tolerability of single subcutaneous dose administered through a dorsal incision [2] | clinical observations [3] | vascularization surrounding the incision sites on the subcutaneous skin layers [4]
lower | longer | significantly longer | CCCCN1CCCCC1C(=O)Nc1c(C)cccc1C (stereo not drawn) [Test Article B, Bupivacaine tridecafluorohexane-sulfonate salt 230] |  |  | 
 |  |  | CCN(CC)CC(=O)Nc1c(C)cccc1C.O=S(=O)(O)C(F)(F)C(F)(F)C(F)(F)C(F)(F)C(F)(F)C(F)(F)C(F)(F)C(F)(F)F [Test Article B] | tolerated | slightly dehydrated and hypoactive | slight to moderate
